Earlier results, collected in patent US10759976B2, “Color changeable adhesives and methods of making such adhesives” (Sensor International, LLC, priority 2018, dated 2020).

Details: Table 2, carbon dioxide sensitive pigments/dyes

| Molecule | pKa |
| --- | --- |
| 5′ and 6′-Carboxyseminaphtholfluorescein | 7.4 |
| 5′ and 6′-Carboxyseminaphtholrhodamine | 7.5 |
| O=S(=O)(O)c1cc(O)c2ccc3c(S(=O)(=O)O)cc(S(=O)(=O)O)c4ccc1c2c34 [1, Hydroxypyrene-3,6,8-trisulphonic acid] | 8.1 |
| O=C(O)Cc1cc(=O)oc2cc(O)ccc12 [7-hydroxycoumarin-4-acetic acid] | 7.8 |
| O=S1(=O)OC(c2ccc(O)cc2)(c2ccc(O)cc2)c2ccccc21 [Phenol Red, phenolsulfonphthalein] | 7.6 |
| Cc1cc(O)c(C(C)C)cc1C1(c2cc(C(C)C)c(O)cc2C)OS(=O)(=O)c2ccccc21 [Thymol blue, thymolsulphonephthalein] | 9.0 |
| Cc1cc(O)c(C(C)C)cc1C1(c2cc(C(C)C)c(O)cc2C)OC(=O)c2ccccc21 [Thymolphthalein, 3,3-bis(4-hydroxy-2-methyl-5-propan-2-ylphenyl)-2-benzofuran-1-one] | 9.7 |
| Cc1cc(O)ccc1C1(c2ccc(O)cc2C)OS(=O)(=O)c2ccccc21 [m-Cresol Purple] | 8.3 |
| o-Cresolphthalein | 9.4 |

Same assay, conditions: Table 3, fluorimetric pigments/dyes

| Molecule | pKa |
| --- | --- |
| O=S(=O)(O)c1cc(O)c2ccc3c(S(=O)(=O)O)cc(S(=O)(=O)O)c4ccc1c2c34 [1, Hydroxypyrene-3,6,8-trisulphonic acid] | 8.1 |
| NC(=O)NN=Cc1ccccc1O [salicylaldehyde semicarbazone] | 7.8 |

Same assay, conditions: Table 4, ammonia sensitive pigments/dyes

| Molecule | pKa |
| --- | --- |
| O=C1c2ccccc2C(=O)c2c1cc(S(=O)(=O)O)c(O)c2O [Alizarin red S] | 4.5 |
| O=C1c2ccccc2C(=O)c2c1ccc(O)c2O [Alizarin] | 6.8 |
| O=S1(=O)OC(c2cc(Cl)c(O)c(Br)c2)(c2cc(Cl)c(O)c(Br)c2)c2ccccc21 [Bromochlorophenol blue] | 6.0 |
| Cc1c(C2(c3cc(Br)c(O)c(Br)c3C)OS(=O)(=O)c3ccccc32)cc(Br)c(O)c1Br [Bromocresol green] | 4.7 |
| O=S1(=O)OC(c2cc(Br)c(O)c(Br)c2)(c2cc(Br)c(O)c(Br)c2)c2ccccc21 [Bromophenol blue] | 3.9 |
| O=S1(=O)OC(c2ccc(O)c(Cl)c2)(c2ccc(O)c(Cl)c2)c2ccccc21 [Chlorophenol red] | 6.3 |
| CCN(CC)c1ccc(N=Nc2ccc(S(=O)(=O)[O-])cc2)cc1.[K+] [Ethyl orange] | 4.3 |
| CN(C)c1ccc(N=Nc2ccc(S(=O)(=O)[O-])cc2)cc1.[Na+] [Methyl Orange] | 4.2 |
| CN(C)c1ccc(/N=N/c2ccccc2C(=O)O)cc1 [Methyl red] | 5.4 |
| CN(C)c1ccc(N=Nc2ccccc2)cc1 [Methyl yellow] | 3.3 |
| O=S1(=O)OC(c2ccc(O)cc2)(c2ccc(O)cc2)c2ccccc21 [Phenol Red, phenolsulfonphthalein] | 7.6 |
| O=C([O-])c1c(Cl)c(Cl)c(Cl)c(Cl)c1-c1c2cc(Br)c(=O)c(Br)c-2oc2c(Br)c([O-])c(Br)cc12.[Na+].[Na+] [Phloxine B] | 2.5 |
| Cc1cc(O)c(C(C)C)cc1C1(c2cc(C(C)C)c(O)cc2C)OS(=O)(=O)c2ccccc21 [Thymol blue, thymolsulphonephthalein] | 1.6 |
| Cc1cc(O)ccc1C1(c2ccc(O)cc2C)OS(=O)(=O)c2ccccc21 [m-Cresol Purple] | 1.5 |
| Nitrazine yellow | 6.4 |
